From patent US20240139162A1, “Benzophenanthridine Alkaloids and Their Methods of Use” (Chengdu Anticancer Bioscience, LTD., priority 2019, published 2024)
“Also recorded” adds a separate entry of the source.

Assays:
[1] = tested on: RPE-MBC cells; assay: IC50 in RPE-MBC cells (Table 1); type: cell-based, human; details: Homo sapiens; RPE-MBC, treatment 72 h; read-out: IC50
Description: Retinal pigment epithelial cells transformed by ectopic MYC and Bcl-2 expression (RPE-MBC cells) have been described previously (e.g., Goga et al., 2007, Nat. Med., 13 (7):820-827) and were cultured in DMEM supplemented with 5% fetal bovine serum in a humidified incubator that was maintained at 5% CO2. For screening for bioactive fractions, cells were cultured in 96-well plates, and exposed to crude extracts, partially purified fractions or pure compounds at the concentrations indicated in the figure legends. Exposure was for 24 or 48 hours before analysis of cells for either an arrest in mitosis using an inverted microscope or for a change in DNA content after 4′,6′-diamidino-2-phenylindole (DAPI) staining by fluorescence microscopy.
The RPE series were derived from human retinal pigment epithelium and then stably transfected with a hTERT expression construct for immortalization. The resulting cell line was then engineered to overexpress the MYC and BCL2 oncogenes, generating the RPE MBC cell line. This cell line mimics cancer cells that overexpress MYC and Bcl2, and readily forms viable polyploid cells when cytokinesis is prevented.
(§1) Cells were split, plated in appropriate culture media and allowed to adhere. After 18 hours, corynoline and acetylcorynoline were added to a cell line selected from below. At 72 h or 96 h, MTT was added and at 75 h or 99 h, the A570 nm was recorded. The concentration ranged from 0.02 μM to 40 μM.
(§2) The effect of the compounds chelidonine and protopine on cell division was assessed similarly to corynoline and acetylcorynoline above. As described in Example 6 above, as cells enter and become arrested in mitosis, they detach from the plate surface and appear as rounded cells with a smooth surface membrane. RPE-MBC cells (ectopically expressing oncogenes MYC and Bcl2) were treated with DMSO, chelidonine and protopine, and compared against controls Michael's ketone (MK) and taxol.

[2] = tested on: IMR 90 cells; assay: IC50 in IMR 90 cells (Table 2); type: cell-based; details: Homo sapiens, IMR-90, 72 h, IMR 90, treatment 72 h; read-out: IC50
Description: as §1, §2

[3] = tested on: RPE-MBC cells; assay: Mitotic arrest (cell round-up, phospho-Histone H3) and polyploidy (DAPI) assay; type: cell-based, human
Description: For screening for bioactive fractions, cells were cultured in 96-well plates, and exposed to crude extracts, partially purified fractions or pure compounds at the concentrations indicated in the figure legends. Exposure was for 24 or 48 hours before analysis of cells for either an arrest in mitosis using an inverted microscope or for a change in DNA content after 4′,6′-diamidino-2-phenylindole (DAPI) staining by fluorescence microscopy.
Cells were cultured on coverslips in a 6-well plate, fixed with 4% paraformaldehyde and then permeabilized with 0.3% Triton X-100 in PBS. Primary antibody was detected with Texas-Red-conjugated secondary antibodies that were purchased from Jackson ImmunoResearch. After immunostaining, cells were mounted on microscope slides with 4′,6′-diamidino-2-phenylindole (DAPI)-containing Vectashield mounting solution (Vector Laboratories) for detection of fluorescence with an EVOS FL fluorescence microscope (ThermoFisher).
Cellular “round-up” was used as a surrogate marker for mitotic arrest and could easily be assayed using an inverted tissue culture microscope. […] Mitotic arrest was judged by cell round-up observed under an inverted tissue culture microscope 24 hours after exposing cells to the library.
As cells enter and become arrested in mitosis, they detach from the plate surface and appear as rounded cells with smooth surface membrane, distinct from detached cells that are undergoing programmed cell death. Simple visual screening method was used to assay thousands of extracts. […] To identify bioactive components that are able to interfere with mitosis, 3 kg of Corydalis longicalcarata rhizome were recollected and performed bioactivity-guided extraction, isolation, and purification. The air dried and powdered material was extracted with 70% ethanol assisted by exposure to ultrasonic waves.

[4] = tested on: cells; assay: Progression through mitosis by time-lapse microscopy; type: cell-based
Source text: Time lapse microscopy was used to compare progression through mitosis for cells treated with acetylcorynoline and the DMSO control group, beginning at prophase.

CC(=O)O[C@H]1Cc2cc3c(cc2[C@H]2N(C)Cc4c(ccc5c4OCO5)[C@@]12C)OCO3 [Acetylcorynoline, (5bR,6S,12bR)-5b,6,7,12b,13,14-Hexahydro-5b,13-dimethyl-[1,3]benzodioxolo[5,6-c]-1,3-dioxolo[4,5-i]phenanthridin-6-ol 6-acetate] was tested, and the IC50 [1] was 9.94 µM, the IC50 [2] was > 40 µM and the “polyploidy compared to DMSO control” value ([3]; 10 μM and 20 μM, 48 hours) was “polyploidy was induced”. The mitotic arrest ([3]; 24 hours after treatment) was “can arrest mitosis within 24 hours of treatment; also recorded: Nearly all cells entered and arrested in mitosis”, the “polyploidy (DAPI staining)” value ([3]; 48 hours after treatment) was “induce polyploidy at 48 hours; also recorded: induced polyploidy; also recorded: Polyploidy was observed; also recorded: demonstrates polyploidy” and the “minimal effective concentration for mitotic arrest and polyploidy relative to corynoline” value ([3]; FIG. 15) was 2 fold. The “mitotic arrest and polyploidy, dependence on concentration” value ([3]; FIG. 15) was “concentration-dependent”, the “persistence of the arrest of cells in mitosis” value ([3]; within 48-hour treatment) was “transient” and the cytofission ([4]; time lapse) was “prevented cytofission”. The initiation of cytokinesis ([4]; time lapse) was “does not affect the initiation of cytokinesis” and the “time spent in early mitosis compared to a control cell” value ([4]; time lapse beginning at prophase) was “three-times longer”.
